Assay [1] is described as follows: Compound was tested for its ability to inhibit Endothelin A receptor induced arachidonic acid release(AARA) in rabbit renal artery vascular smooth muscles.
For assay [2], the target named is Endothelin A receptor (Oryctolagus cuniculus). Described as above.
For assay [3] the target is unchanged. The experiment in a line: Antagonistic activity against endothelin A receptor in rabbit renal artery vascular smooth muscle cells.

By IC50 is commonly meant the concentration that gives 50% inhibition.

In assay [1], `OCC(c1ccc2c(c1)OCO2)c1c2ccccc2nc2ccccc12` (stereo unspecified) [2-Acridin-9-yl-2-benzo[1,3]dioxol-5-yl-ethanol] returned a concentration for half-maximal inhibition (IC50) of 10 µM. In assay [2], `Cc1cc(C(C(N)=O)c2ccc3c(c2)OCO3)c2ccccc2n1` (stereo unspecified) [2-Benzo[1,3]dioxol-5-yl-2-(2-methyl-quinolin-4-yl)-acetamide] came in with an IC50 of 13 µM.

Consider `COC(=O)C(Cc1c2ccccc2cc2ccccc12)c1ccc2c(c1)OCO2` (stereo unspecified) [3-Anthracen-9-yl-2-benzo[1,3]dioxol-5-yl-propionic acid methyl ester], for which the IC50 in assay [3] is over 25 µM. Same read-out and setting: to `O=C(OCc1ccc2c(c1)OCO2)C(c1ccc2c(c1)OCO2)c1c2ccccc2nc2ccccc12` (stereo unspecified) [Acridin-9-yl-benzo[1,3]dioxol-5-yl-acetic acid benzo[1,3]dioxol-5-ylmethyl ester] belongs 8.7 µM; to `O=C(OCc1ccccc1)C(c1ccc2c(c1)OCO2)c1c2ccccc2nc2ccccc12` (stereo unspecified) [Acridin-9-yl-benzo[1,3]dioxol-5-yl-acetic acid benzyl ester], 7.5 µM. In assay [2], `COC(=O)C(c1ccc2c(c1)OCO2)c1cc(C)nc2ccccc12` (stereo unspecified) [Benzo[1,3]dioxol-5-yl-(2-methyl-quinolin-4-yl)-acetic acid methyl ester] yielded an IC50 of 2.8 µM. This counts as single-digit micromolar.

The record behind these values is BindingDB's records for doi:10.1016/S0960-894X(96)00551-3 (1996).
